Data: patent US11866414B2, “Substituted heterocyclic compounds” (BRISTOL-MYERS SQUIBB COMPANY, priority 2021, dated 2024)
Like-named read-outs stand apart in the source and are kept apart here. Marks after values point to notes of the source that are not given here.

Columns and labels:
[1] = Bidirectional permeability assay in Caco-2 cells; conditions: human, Caco-2, pH 7.4
[2] = in vitro; conditions: human, Caco-2, pH 7.4
[3] = Brain penetration in vivo assay (brain and plasma exposure); parameters: species or system mouse
[4] = test system: IFNα-induced STAT phosphorylation (pSTAT5); assay: IFNα-induced STAT phosphorylation in human whole blood; type: cell-based; conditions: 1 h compound, 1000 U/mL IFNα A/D 15 min, CD3 positive population, read-out: Human Whole blood IFNa pSTAT5 IC50
[5] = test system: Caco-2 cells; assay: Bidirectional permeability assay in Caco-2 cells; conditions: for Efflux Ratio: Caco-2, 3 μM, pH 7.4, 2 hours; for CACO2 (A-B): permeability coefficient apical-to-basolateral, 3 μM, pH 7.4, 0.5% BSA, 2 hours, 37° C.
[6] = Brain penetration in vivo assay (brain and plasma exposure)
Experimental: Brain Penetration In Vivo Assay
A pharmacokinetic study was performed using C57BL6 wild-type mice (n=3 per experiment) to determine brain and plasma exposure of compounds of the invention. The compound was administered orally in a solution of 5% ETHANOL: 90% PEG 300; 5% TPGS at 5 mL/kg for a final concentration of 10 mg/kg. Nice were euthanized 1 hour post-dose and plasma and brain were collected and frozen for analysis. Brain tissues were homogenized in a 1:1 volume of blank C57BL6 mouse plasma. Concentrations of the compound in plasma and brain homogenate were determined by LC-MS analysis.

[7] = test system: Caco-2 cells; conditions: human, Caco-2, 2 h, 3 μM, pH 7.4

Q: With `C[C@H]1O[C@@H](O[C@H]2[C@@H](O)C[C@H](O[C@H]3[C@@H](O)C[C@H](O[C@H]4CC[C@@]5(C)[C@H](CC[C@@H]6[C@@H]5C[C@@H](O)[C@]5(C)[C@@H](C7=CC(=O)OC7)CC[C@]65O)C4)O[C@@H]3C)O[C@@H]2C)C[C@H](O)[C@@H]1O` [Digoxin, reference compound] as the compound, how does the Papp A→B at 2 h, 3 μM [1] read?
A: The Papp A→B at 2 h, 3 μM was 1.8 ± 0.7 ×10⁻⁶ cm/s.

Q: And the Papp B→A at 2 h, 3 μM [1]?
A: The Papp B→A at 2 h, 3 μM was 26.5 ± 7.4 ×10⁻⁶ cm/s.

Q: What about the efflux ratio at 2 h, 3 μM [1] of the same compound?
A: The efflux ratio at 2 h, 3 μM was 14.7.

Q: Which Papp A→B at 2 h, 3 μM [2] does the source give for `[2H]C([2H])([2H])NC(=O)c1nnc(NC(=O)OC)cc1Nc1cccc(-c2cnn(C)n2)c1OC` [Example 7, methyl N-(5-{[2-methoxy-3-(2-methyl-2H-1,2,3-triazol-4-yl)phenyl]amino}-6-[(^2H3)methylcarbamoyl]pyridazin-3-yl)carbamate] here?
A: Its Papp A→B at 2 h, 3 μM is 41.6 ×10⁻⁶ cm/s.

Q: And the efflux ratio at 2 h, 3 μM [2]?
A: The efflux ratio at 2 h, 3 μM was 0.4.

Q: What about the Kp at 40 min ([3]; C57BL6, mouse, brain / plasma, 2 mg/kg, footnote **: 2 mpk iv solution dose, exposures measured at 40 minutes, read-out: Ratio of exposure in brain to plasma (mouse)) of the same compound?
A: Its Kp at 40 min is 0.5.

Q: And the IC50 [4]?
A: The IC50 was 390 nM.

Q: For `[2H]C([2H])([2H])NC(=O)c1nnc(NC(=O)C2CC2)cc1Nc1nc(F)cc(-c2cnn(C)n2)c1OC` [Example 62, 6-(Cyclopropanecarboxamido)-4-((6-fluoro-3-methoxy-4-(2-methyl-2H-1,2,3-triazol-4-yl)pyridin-2-yl)amino)-N-(methyl-d3)pyridazine-3-carboxamide], which Papp A→B at 2 h, 3 μM [2] is on record?
A: The Papp A→B at 2 h, 3 μM was 43.2 ×10⁻⁶ cm/s.

Q: And the efflux ratio at 2 h, 3 μM [2]?
A: Its efflux ratio at 2 h, 3 μM is 0.4.

Q: What about the Kp at 1.5 h ([3]; C57BL6, mouse, brain / plasma, 2 mg/kg, footnote *****: 2 mpk iv solution dose, exposures measured at 90 minutes, read-out: Ratio of exposure in brain to plasma (mouse)) of the same compound?
A: Its Kp at 1.5 h is 0.6.

Q: And the IC50 [4]?
A: The IC50 was 120 nM.

Q: Which results are given for `[2H]C([2H])([2H])NC(=O)c1nnc(NC(=O)[C@@H]2CC23CC3)cc1Nc1cccc(-c2cnn(C)n2)c1OC` [Example 13, 4-{[2-methoxy-3-(2-methyl-2H-1,2,3-triazol-4-yl)phenyl]amino}-N—(^2H3)methyl-6-[(1R)-spiro[2.2]pentane-1-amido]pyridazine-3-carboxamide]?
A: Efflux Ratio [5]: 0.7; CACO2 (A-B) [5]: 251 nm/s; Ratio of exposure in brain to plasma (mouse) (1 h, 10 mpk, po) [6]: 0.4

Q: For `[2H]C([2H])([2H])NC(=O)c1nnc(NC(=O)C2CC2)cc1Nc1cc(C)cc(-c2cnn(C)n2)c1OC` [Example 17, 6-cyclopropaneamido-4-{[2-methoxy-5-methyl-3-(2-methyl-2H-1,2,3-triazol-4-yl)phenyl]amino}-N—(^2H3)methylpyridazine-3-carboxamide], which “Ratio of exposure in brain to plasma (mouse) (1 h, 10 mpk, po)” value ([3]; footnote ***: nanosupension in 0.5% methocel A4M, 0.1% tween 80, 99.4% water) is on record?
A: Its value is 0.2***.

Q: What about the “CACO2 (A-B)” value [7] of the same compound?
A: The value was 282 nm/s.

Q: For `[2H]C([2H])([2H])NC(=O)c1nnc(NC(=O)C2CC2)cc1Nc1cccc(-c2cnn(CCF)n2)c1OC` [Example 2, 6-cyclopropaneamido-4-({3-[2-(2-fluoroethyl)-2H-1,2,3-triazol-4-yl]-2-methoxyphenyl}amino)-N—(^2H3)methylpyridazine-3-carboxamide], which “Ratio of exposure in brain to plasma (mouse)” value ([3]; footnote *: 2 mpk iv solution dose) is on record?
A: Its value is 0.1*.

Q: And the “CACO2 (A-B)” value [7]?
A: The value was 427 nm/s.

Q: For `[2H]C([2H])([2H])NC(=O)c1nnc(NC(=O)N2CCC2)cc1Nc1cccc(-c2cnn(C)n2)c1OC` [Example 51, 6-[(azetidine-1-carbonyl)amino]-4-{[2-methoxy-3-(2-methyl-2H-1,2,3-triazol-4-yl)phenyl]amino}-N—(^2H3)methylpyridazine-3-carboxamide], which “Efflux Ratio” value [5] is on record?
A: Its value is 0.9.

Q: What about the “CACO2 (A-B)” value [5] of the same compound?
A: Its value is 429 nm/s.

Q: Which “Efflux Ratio” value [5] does the source give for `[2H]C([2H])([2H])NC(=O)c1nnc(NC(=O)N(C)C(C)C)cc1Nc1nccc(-c2cnn(C)n2)c1OC` [Example 59, 4-{[3-methoxy-4-(2-methyl-2H-1,2,3-triazol-4-yl)pyridin-2-yl]amino}-N—(^2H3)methyl-6-{[methyl(propan-2-yl)carbamoyl]amino}pyridazine-3-carboxamide] here?
A: The value was 0.8.

Q: And the “CACO2 (A-B)” value [5]?
A: The value was 351 nm/s.
